Converted amounts (≈) assume the structure as drawn. Like-named read-outs stand apart in the source and are kept apart here.
Key:
Assay type in all cases: cell-based
[1] = tested on: Methicillin-resistant S. aureus ATCC 43300; experiment: MIC, broth microdilution; details: Staphylococcus aureus, ATCC 43300 / MRSA, read-out: Minimum inhibitory concentration MRSA^c
Method in brief: (§1)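 Broth microdilution in Mueller–Hinton broth: compounds two-fold serially diluted from a 2560 μg/mL stock (1% DMSO), inoculum 5×10^5 CFU/mL final from log-phase cultures, incubation 37 °C for 24 h. MIC taken as the lowest concentration inhibiting growth.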

S. enterica ATCC14028 = experiment: MIC, broth microdilution; details: Salmonella enterica
Method in brief: as §1

[2] = tested on: C. pneumoniae AR39, ATCC53592; experiment: Anti-mycoplasma MIC; details: Chlamydia pneumoniae
Experimental: (§2) The antimycoplasma activity was quantified using the […]. Retapamulin was used as a positive control to test the minimum inhibitory concentration of 3H-imidazo[4,5-C]pyridine pleuromutilin onium salt derivatives.
(§3) (1) Preparation of KM2 medium: Weigh 38.9 g of KM2 medium, add it to 800 mL of distilled water, boil to dissolve, sterilize under high pressure at 115° C. for 20 min, and set aside.
(§4) (2) Preparation of bacterial stock solution: Take 0.5 mL of Mhp-J^a, Mhp-LH^b, Mhr-BTS-7^c, MG-R^d, MS-WVU1853^e, MP-M129^f, CP-AR-39^g, CP-CWL-029^h, CP-TW-183^i, MH-PG-21^j, MG-G37^k cultured to the logarithmic phase and transfer it to 4.5 mL of KM2 liquid culture medium. When the culture medium turns yellow, divide each bacterium into 0.5 mL per tube and store it at −70° C. as bacterial stock solution.
(§5) (3) Determination of bacterial titer (color change unit, CCU): Take out the bacterial stock solution stored at −70° C., melt and balance to room temperature, add 0.18 mL KM2 medium to each well of the middle 4 rows of the 96-well plate (i.e. 4 parallels), take 0.02 mL and add it to the first column, dilute 10 times to 10^−11, and set up a negative control containing only KM2 medium (12th column). After sealing, put it in a 37° C. incubator and observe the results every day. The highest dilution at which the color of the medium changes is the CCU/mL of the strain.
(§6) Take an appropriate amount of seed bacterial solution and dilute it to 10^4 CCU/mL in turn according to its titer. Add drugs of each dilution in a 96-well plate in turn, and then add an equal amount of diluted bacterial solution. Set 200 μL of diluted mycoplasma bacterial solution as a positive control, 200 μL of KM2 liquid culture medium as a negative control, and set a solvent control group (10 μL of drug solvent+190 μL of mycoplasma bacterial solution). Each experiment is set up in 3 parallels. After all culture plates are sealed, they are cultured at 37° C., observed daily, and the final MIC value is recorded.

[3] = tested on: M. synoviae WVU1853, NCTC10124; experiment: Anti-mycoplasma MIC; details: Mycoplasmopsis synoviae
Experimental: as §2, §3, §4, §5, §6

[4] = tested on: M. hominis PG-21, ATCC23114; experiment: Anti-mycoplasma MIC; details: Metamycoplasma hominis
Experimental: as §2, §3, §4, §5, §6

[5] = tested on: M. genitalium G37, ATCC33530; experiment: Anti-mycoplasma MIC; details: Mycoplasmoides genitalium
Experimental: as §2, §3, §4, §5, §6

[6] = tested on: M. pneumoniae M129, ATCC29342; experiment: Anti-mycoplasma MIC; details: Mycoplasmoides pneumoniae
Experimental: as §2, §3, §4, §5, §6

[7] = tested on: M. hyopneumoniae J, NCTC10110; experiment: Anti-mycoplasma MIC; details: Mesomycoplasma hyopneumoniae
Experimental: as §2, §3, §4, §5, §6

[8] = tested on: C. pneumoniae TW183, VR-2282; experiment: Anti-mycoplasma MIC; details: Chlamydia pneumoniae, read-out: Antimycoplasma activity (MIC) CP-TW-183^i
Experimental: as §2, §3, §4, §5, §6

[9] = tested on: M. hyorhinis BTS-7, NCTC10130; experiment: Anti-mycoplasma MIC; details: Mesomycoplasma hyorhinis
Experimental: as §2, §3, §4, §5, §6

[10] = tested on: M. galliscepticum, NCTC10115; experiment: Anti-mycoplasma MIC; details: read-out: Antimycoplasma activity (MIC) MG-R^d
Experimental: as §2, §3, §4, §5, §6

Molecule C=C[C@]1(C)C[C@@H](OC(=O)CSc2nc3cc[n+](Cc4ccc(C)cc4)cc3[nH]2)[C@]2(C)[C@H](C)CC[C@]3(CCC(=O)[C@H]32)[C@@H](C)[C@@H]1O [Compound i, 5-(4-methylbenzyl)-2-((2-(((3aR,4R,5R,7S,8S,9R,9aS,12R)-8-hydroxy-4,7,9,12-tetramethyl-3-oxo-7-vinyldecahydro-4,9a-propancyclopenta[8]cyclo-5-yl)oxy)-2-oxoethyl)thio)-3H-imidazo[4,5-C]pyridine-5-ium] has an MIC ([1]; Methicillin-resistant S. aureus ATCC 43300) of 0.0625 µg/mL, an MIC (S. enterica ATCC14028; S. enterica ATCC14028, read-out: Minimum inhibitory concentration S.e.^g) of 0.25 µg/mL and an MIC ([2]; ATCC53592, C. pneumoniae AR39, read-out: Antimycoplasma activity (MIC) CP-AR-39^g) of 0.002 µg/mL. For the same molecule, the MIC ([3]; NCTC10124, M. synoviae WVU1853, read-out: Antimycoplasma activity (MIC) MS-WVU1853^e) was 0.015 µg/mL, the MIC ([4]; ATCC23114, M. hominis PG-21, read-out: Antimycoplasma activity (MIC) MH-PG-21^j) was 0.015 µg/mL and the MIC ([5]; ATCC33530, M. genitalium G37, read-out: Antimycoplasma activity (MIC) MG-G37^k) was 0.03 µg/mL. It also gave an MIC ([6]; ATCC29342, M. pneumoniae M129, read-out: Antimycoplasma activity (MIC) MP-M129^f) of 0.008 µg/mL, an MIC ([7]; NCTC10110, M. hyopneumoniae J, read-out: Antimycoplasma activity (MIC) Mhp-J^a) of 0.02 µg/mL and an MIC ([8]; C. pneumoniae TW183) of 0.01 µg/mL. It also gave an MIC ([9]; NCTC10130, M. hyorhinis BTS-7, read-out: Antimycoplasma activity (MIC) Mhr-BTS-7^c) of 0.03 µg/mL and an MIC ([10]; M. galliscepticum) of 0.04 µg/mL.

Work on C=C[C@]1(C)C[C@@H](OC(=O)CS[C@@H]2C[C@H]3CC[C@@H](C2)N3C)[C@]2(C)[C@H](C)CC[C@]3(CCC(=O)[C@H]32)[C@@H](C)[C@@H]1O [Retapamulin, reference compound] yielded an MIC [1] of 16 µg/mL (≈ 30.9 µM), an MIC (S. enterica ATCC14028; ATCC14028, read-out: Minimum inhibitory concentration S.e.^g) of 128 µg/mL (≈ 247 µM) and an MIC ([2]; ATCC53592, read-out: Antimycoplasma activity (MIC) CP-AR-39^g) of 0.125 µg/mL (≈ 0.241 µM). For the same molecule, the MIC ([3]; NCTC10124, read-out: Antimycoplasma activity (MIC) MS-WVU1853^e) was 2 µg/mL (≈ 3.86 µM), the MIC ([4]; ATCC23114, read-out: Antimycoplasma activity (MIC) MH-PG-21^j) was 0.25 µg/mL (≈ 0.483 µM) and the MIC ([5]; ATCC33530, read-out: Antimycoplasma activity (MIC) MG-G37^k) was 0.03 µg/mL (≈ 0.0579 µM). The MIC ([6]; ATCC29342, read-out: Antimycoplasma activity (MIC) MP-M129^f) was 0.015 µg/mL (≈ 0.029 µM), the MIC ([7]; NCTC10110, read-out: Antimycoplasma activity (MIC) Mhp-J^a) was 0.03 µg/mL (≈ 0.0579 µM) and the MIC [8] was 0.03 µg/mL (≈ 0.0579 µM). It also gave an MIC ([9]; NCTC10130, read-out: Antimycoplasma activity (MIC) Mhr-BTS-7^c) of 0.03 µg/mL (≈ 0.0579 µM) and an MIC [10] of 0.125 µg/mL (≈ 0.241 µM).

Source: patent US12275734B1, “Pleuromutilin onium salt derivative containing a 3H-imidazo[4,5-c]pyridine side chain, and a preparation method and application thereof” (SHAANXI UNIVERSITY OF SCIENCE AND TECHNOLOGY, priority 2024, dated 2025)
